# Assay results reported in patent US20150065421A1, “BASAL INSULIN THERAPY” (SANOFI, priority 2012, published 2015).
# Tests used:
# [1] = tested on: diabetic patients hospitalized with acute MI; details: IV insulin-glucose infusion then chronic insulin vs standard treatment; cited from earlier work
# [2] = tested on: critical-care post-surgical patients; details: intervention group: insulin infusion to blood glucose 80-110 mg/dL; cited from earlier work
# [3] = Respective studies with other long-acting insulins; type: in vivo; details: no data given
# Description: The results of the ORIGIN study were obtained with the long-lasting insulin glargine.
Substance,reduction of all-cause mortality [1] [%],overall mortality at twelve-months follow-up [2] [%],results of respective studies compared with the ORIGIN results of insulin glargine [3]
insulin: insulin infusion or chronic insulin treatment in cited DIGAMI and Belgian ICU studies,28,8.0,
insulin degludec,,,comparable results
insulin detemir,,,comparable results
